In ChEMBL document CHEMBL6153058, “Pyrrolopyrazine Compounds as ERK5 Inhibitors for Treating Cancer” (ACS Med Chem Lett, 2025):

Target: Mitogen-activated protein kinase 7 (Homo sapiens, UniProt Q13164)
Assay: Inhibition of ERK5 in human SN12C cells assessed as reduction in luminescence signal by bright glo reagent based luminescent cell assay

Sequence of Mitogen-activated protein kinase 7 (Q13164 whole entry): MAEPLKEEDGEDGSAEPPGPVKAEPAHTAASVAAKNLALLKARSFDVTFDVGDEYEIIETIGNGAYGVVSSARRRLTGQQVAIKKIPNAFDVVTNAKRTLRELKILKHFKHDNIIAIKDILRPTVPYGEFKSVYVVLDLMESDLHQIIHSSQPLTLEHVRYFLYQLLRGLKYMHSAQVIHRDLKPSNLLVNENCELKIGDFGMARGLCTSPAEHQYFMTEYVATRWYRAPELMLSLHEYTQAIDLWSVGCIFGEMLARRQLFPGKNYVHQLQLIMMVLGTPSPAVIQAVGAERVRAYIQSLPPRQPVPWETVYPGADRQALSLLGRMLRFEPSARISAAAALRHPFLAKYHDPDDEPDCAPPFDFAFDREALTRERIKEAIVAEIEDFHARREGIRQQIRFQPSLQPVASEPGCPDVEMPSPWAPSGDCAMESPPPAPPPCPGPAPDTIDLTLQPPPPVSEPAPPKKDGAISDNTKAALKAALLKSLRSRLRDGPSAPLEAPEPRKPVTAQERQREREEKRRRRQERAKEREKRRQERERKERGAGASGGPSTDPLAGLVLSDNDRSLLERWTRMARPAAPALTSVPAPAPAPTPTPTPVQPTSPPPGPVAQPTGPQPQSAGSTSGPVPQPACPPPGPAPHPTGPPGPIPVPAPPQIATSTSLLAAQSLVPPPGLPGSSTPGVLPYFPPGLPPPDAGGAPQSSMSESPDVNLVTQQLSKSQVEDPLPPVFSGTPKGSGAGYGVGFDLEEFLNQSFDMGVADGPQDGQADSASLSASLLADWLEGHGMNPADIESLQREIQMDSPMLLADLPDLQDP

IC50 [nM] | SMILES
17 | Nc1cc(OC(F)(F)F)ccc1C(=O)N1CCC(c2c[nH]c3ncc([C@H]4CC[C@H](O)CC4)nc23)CC1
21 | Nc1cc(OC(F)(F)F)ccc1C(=O)N1CCC(c2c[nH]c3ncc(C4CCOC4)nc23)CC1 (configuration not stated)
